# Laboratory results published in patent US20240261417A1, “SOS1 DEGRADING AGENT AND PREPARATION METHOD THEREFOR AND APPLICATION THEREOF” (SHANGHAI LEADINGTAC PHARMACEUTICAL CO. LTD., priority 2021, published 2024).
# Test system: KRAS G13D mutant human colorectal adenocarcinoma epithelial cells DLD-1
# Experiment: 3D cell proliferation inhibition assay, DLD-1
# Type: cell-based
# Details: Homo sapiens, DLD-1, 168 h, 7 days, CTG
# Procedure: Inhibition of 3D cell proliferation by the compounds was investigated on KRAS G12C mutant human non-small cell lung cancer cells NCI-H358 (ATCC or Stem Cell Bank, Chinese Academy of Sciences), KRAS G12D mutant human metastatic pancreatic adenocarcinoma cells AsPC-1 (ATCC), KRAS G12V mutant human lung adenocarcinoma cells NCI-H441 (ATCC), and KRAS G13D mutant human colorectal adenocarcinoma epithelial cells DLD-1 (ATCC). The specific procedures were as follows:
# 200 nL of compound solution diluted in a gradient was added to corresponding microwells of a 384-well low-adsorption microwell plate (Corning, 3657) using an Echo sonic pipetting system (Labcyte, Echo 550), so that the final concentration of the test compound in the reaction system was in a range of 20000 nM-0.008 nM. Then 40 μL of cells at a certain density were added to the corresponding microplate. In addition to test wells for the test compounds, both a DMSO control well and a medium control well were set, with the DMSO control well containing DMSO and cells and the medium well containing only medium. After sample loading, the plate cover was applied, and the 384-well low-adsorption microplate was incubated in an incubator at 37° C. with 5% carbon dioxide for 7 days. After 7 days, the microplate was taken out, and 40 μL of CTG reagent (Promega, G9683) was added to each well. The plate was incubated at room temperature for 30 min and read on a microplate reader EnVision using the chemiluminescence program. The inhibition rates of the compounds at each concentration were calculated by the formula for the percentage inhibition of cell proliferation: inhibition rate %=(mean value of DMSO control group−single concentration reading value of compound)/(mean value of DMSO control group−mean value of medium control group)×100, and then nonlinear curve fitting was performed by GraphPad Prism 8 in the logarithmic concentration-inhibition rate to obtain the IC50 values of the compounds.
row,Structure (SMILES),IC50
1,"CNCc1ccccc1-c1csc([C@@H](C)Nc2nc(C)nc3cc(OC)c([C@H]4CC[C@H](C(=O)N5CCN(CC6CCC7(CC6)CCN(C(=O)c6ccc(OC)c(N8CCC(=O)NC8=O)c6)CC7)CC5)CC4)cc23)c1 [Example 73, 1-(2-methoxy-5-(9-((4-((1R,4R)-4-(7-methoxy-2-methyl-4-(((R)-1-(4-(2-((methylamino)methyl)phenyl)thien-2-yl)ethyl)amino)quinazolin-6-yl)cyclohexane-1-carbonyl)piperazin-1-yl)methyl)-3-azaspiro[5.5]undecane-3-carbonyl)phenyl)dihydropyrimidine-2,4(1H,3H)-dione]",50 to 100 nM
2,"COc1cc2nc(C)nc(N[C@H](C)c3cc(N)cc(C(F)(F)F)c3)c2cc1[C@H]1CC[C@H](C(=O)N2CCN(CC3CCC4(CC3)CCN(C(=O)c3ccc(Cl)c(N5CCC(=O)NC5=O)c3)CC4)CC2)CC1 [Example 2, 1-(5-(9-((4-((1R,4R)-4-(4-(((R)-1-(3-amino-5-(trifluoromethyl)phenyl)ethyl)amino)-7-methoxy-2-methylquinazolin-6-yl)cyclohexane-1-carbonyl)piperazin-1-yl)methyl)-3-azaspiro[5.5]undecane-3-carbonyl)-2-chlorophenyl)dihydropyrimidine-2,4(1H,3H)-dione]",15 to 30 nM
3,"COc1cc2nc(C)nc(N[C@H](C)c3cc(N)cc(C(F)(F)F)c3)c2cc1[C@H]1CC[C@H](C(=O)N2CCC(CCOCC3CCN(C(=O)c4ccc(Cl)c(N5CCC(=O)NC5=O)c4)CC3)CC2)CC1 [Example 19, 1-(5-(4-((2-(1-((1R,4R)-4-(4-(((R)-1-(3-amino-5-(trifluoromethyl)phenyl)ethyl)amino)-7-methoxy-2-methylquinazolin-6-yl)cyclohexane-1-carbonyl)piperidin-4-yl)ethoxy)methyl)piperidine-1-carbonyl)-2-chlorophenyl)dihydropyrimidine-2,4(1H,3H)-dione]",100 to 1000 nM
4,"COc1cc2nc(C)nc(N[C@H](C)c3cc(N)cc(C(F)(F)F)c3)c2cc1[C@H]1CC[C@H](C(=O)N2CCN(CCC3CCC4(CC3)CCN(C(=O)c3ccc(Cl)c(N5CCC(=O)NC5=O)c3)CC4)CC2)CC1 [Example 1, 1-(5-(9-(2-(4-((1R,4R)-4-(4-(((R)-1-(3-amino-5-(trifluoromethyl)phenyl)ethyl)amino)-7-methoxy-2-methylquinazolin-6-yl)cyclohexane-1-carbonyl)piperazin-1-yl)ethyl)-3-azaspiro[5.5]undecane-3-carbonyl)-2-chlorophenyl)dihydropyrimidine-2,4(1H,3H)-dione]",30 to 50 nM
5,"COc1cc2nc(C)nc(N[C@H](C)c3cccc4c3CCS4(=O)=O)c2cc1[C@H]1CC[C@H](C(=O)N2CCN(CC3CCC4(CC3)CCN(C(=O)c3ccc(Cl)c(N5CCC(=O)NC5=O)c3)CC4)CC2)CC1 [Example 10, 1-(2-chloro-5-(9-((4-((1R,4R)-4-(4-(((R)-1-(1,1-dioxo-2,3-dihydrobenzo[b]thiophen-4-yl)ethyl)amino)-7-methoxy-2-methylquinazolin-6-yl)cyclohexane-1-carbonyl)piperazin-1-yl)methyl)-3-azaspiro[5.5]undecane-3-carbonyl)phenyl)dihydropyrimidine-2,4(1H,3H)-dione]",15 to 30 nM
6,"COc1cc2nc(C)nc(N[C@H](C)c3cc(N)cc(C(F)(F)F)c3)c2cc1[C@H]1CC[C@H](C(=O)N2CCN(CCOCC3CCN(C(=O)c4ccc(Cl)c(N5CCC(=O)NC5=O)c4)CC3)CC2)CC1 [Example 33, 1-(5-(4-((2-(4-((1R,4R)-4-(4-(((R)-1-(3-amino-5-(trifluoromethyl)phenyl)ethyl)amino)-7-methoxy-2-methylquinazolin-6-yl)cyclohexane-1-carbonyl)piperazin-1-yl)ethoxy)methyl)piperidine-1-carbonyl)-2-chlorophenyl)dihydropyrimidine-2,4(1H,3H)-dione]",50 to 100 nM
